Measured values: PubChem BioAssay (NCI)
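GI50: concentration for 50% inhibition of growth. TGI: total growth inhibition.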

How the values were obtained:
Test in all cases: DTP human tumour cell line panel, 384-well format; in the data active = GI50 below about 0.43 µM; inactive = the rest
NCI-H23 lung = test system: NCI-H23 lung
M14 melanoma = test system: M14 melanoma
KM12 colon = test system: KM12 colon
A498 renal = test system: A498 renal
UACC-257 melanoma = test system: UACC-257 melanoma
IGROV1 ovarian = test system: IGROV1 ovarian
UO-31 renal = test system: UO-31 renal
CCRF-CEM leukemia = test system: CCRF-CEM leukemia
DU-145 prostate = test system: DU-145 prostate
MCF7 breast = test system: MCF7 breast
MDA-MB-468 breast = test system: MDA-MB-468 breast
K-562 leukemia = test system: K-562 leukemia
SK-MEL-5 melanoma = test system: SK-MEL-5 melanoma
SK-OV-3 ovarian = test system: SK-OV-3 ovarian
SW-620 colon = test system: SW-620 colon
HOP-62 NSCLC = test system: HOP-62 NSCLC
SNB-19 CNS = test system: SNB-19 CNS
HT29 colon = test system: HT29 colon
HCC-2998 colon = test system: HCC-2998 colon
BT-549 breast = test system: BT-549 breast
NCI/ADR-RES ovarian = test system: NCI/ADR-RES ovarian
OVCAR-8 ovarian = test system: OVCAR-8 ovarian
HCT-116 colon = test system: HCT-116 colon
SNB-75 CNS = test system: SNB-75 CNS
SF-539 CNS = test system: SF-539 CNS
U251 glioblastoma = test system: U251 glioblastoma
UACC-62 melanoma = test system: UACC-62 melanoma
HOP-92 NSCLC = test system: HOP-92 NSCLC
NCI-H522 lung = test system: NCI-H522 lung
SF-268 CNS = test system: SF-268 CNS
NCI-H226 lung = test system: NCI-H226 lung
786-0 renal = test system: 786-0 renal
HCT-15 colon = test system: HCT-15 colon
A549 NSCLC = test system: A549 NSCLC
NCI-H460 NSCLC = test system: NCI-H460 NSCLC
OVCAR-3 ovarian = test system: OVCAR-3 ovarian
SF-295 CNS = test system: SF-295 CNS
SK-MEL-2 melanoma = test system: SK-MEL-2 melanoma
SN12C renal = test system: SN12C renal
SK-MEL-28 melanoma = test system: SK-MEL-28 melanoma
COLO 205 colon = test system: COLO 205 colon
LOX IMVI melanoma = test system: LOX IMVI melanoma
CAKI-1 renal = test system: CAKI-1 renal
ACHN renal = test system: ACHN renal
HL-60(TB) leukemia = test system: HL-60(TB) leukemia
RPMI-8226 leukemia = test system: RPMI-8226 leukemia
SR leukemia = test system: SR leukemia
PC-3 prostate = test system: PC-3 prostate
T-47D breast = test system: T-47D breast
RXF 393 renal = test system: RXF 393 renal
TK-10 renal = test system: TK-10 renal
OVCAR-5 ovarian = test system: OVCAR-5 ovarian
NCI-H322M lung = test system: NCI-H322M lung
MDA-MB-231 breast = test system: MDA-MB-231 breast
MALME-3M melanoma = test system: MALME-3M melanoma
MDA-MB-435 melanoma = test system: MDA-MB-435 melanoma
OVCAR-4 ovarian = test system: OVCAR-4 ovarian
MOLT-4 leukemia = test system: MOLT-4 leukemia

Nc1ccn(C2OC(CO)C(O)C2O)c(=O)n1 (configuration not stated)
366 nM: TGI (NCI-H460 NSCLC)
1010 nM: TGI (NCI-H23 lung)
706 nM: TGI (HOP-62 NSCLC)
790 nM: TGI (SK-MEL-5 melanoma)
inactive: GI50 (KM12 colon) 6.67 µM | GI50 (UACC-257 melanoma) 2230 nM | GI50 (IGROV1 ovarian) 2390 nM | GI50 (DU-145 prostate) 501 nM | GI50 (MDA-MB-468 breast) 1140 nM | GI50 (SK-OV-3 ovarian) 1.89 µM | GI50 (SW-620 colon) 581 nM | GI50 (SNB-19 CNS) 738 nM | GI50 (HT29 colon) 1480 nM | GI50 (BT-549 breast) 0.602 µM | GI50 (NCI/ADR-RES ovarian) 446 nM | GI50 (SNB-75 CNS) 8.64 µM | GI50 (SF-539 CNS) 1.8 µM | GI50 (U251 glioblastoma) 1060 nM | GI50 (UACC-62 melanoma) 732 nM | GI50 (HOP-92 NSCLC) 10.6 µM | GI50 (SF-268 CNS) 1030 nM | GI50 (NCI-H226 lung) 1.74 µM | GI50 (OVCAR-3 ovarian) 6.7 µM | GI50 (SF-295 CNS) 2140 nM | GI50 (SK-MEL-2 melanoma) > 21.4 µM | GI50 (SN12C renal) 1.24 µM | GI50 (CAKI-1 renal) 446 nM | GI50 (RPMI-8226 leukemia) 3.49 µM
1110 nM: TGI (ACHN renal)
2640 nM: TGI (COLO 205 colon)
active: GI50 (NCI-H23 lung) 0.106 µM | GI50 (M14 melanoma) 148 nM | GI50 (A498 renal) 0.27 µM | GI50 (UO-31 renal) 406 nM | GI50 (CCRF-CEM leukemia) < 0.0137 µM | GI50 (MCF7 breast) 99.1 nM | GI50 (K-562 leukemia) 155 nM | GI50 (SK-MEL-5 melanoma) 249 nM | GI50 (HOP-62 NSCLC) 63.9 nM | GI50 (HCC-2998 colon) 0.0847 µM | GI50 (OVCAR-8 ovarian) 102 nM | GI50 (HCT-116 colon) 69.5 nM | GI50 (NCI-H522 lung) 85.8 nM | GI50 ([…]-0 renal) 218 nM | GI50 (HCT-15 colon) 328 nM | GI50 (A549 NSCLC) 0.0751 µM | GI50 (NCI-H460 NSCLC) 34.3 nM | GI50 (SK-MEL-28 melanoma) 171 nM | GI50 (COLO 205 colon) 58.8 nM | GI50 (LOX IMVI melanoma) 286 nM | GI50 (ACHN renal) 196 nM | GI50 (HL-60(TB) leukemia) 182 nM | GI50 (SR leukemia) 0.103 µM
9.95 µM: TGI (LOX IMVI melanoma)
> 30.8 µM: TGI (DU-145 prostate)
235 nM: TGI (SR leukemia)
> 95.6 µM: TGI (SF-539 CNS)
20.5 nM: TGI (CCRF-CEM leukemia)
1950 nM: TGI (M14 melanoma)
759 nM: TGI (HL-60(TB) leukemia)
> 27.2 µM: TGI (SNB-19 CNS)
12 µM: TGI (SF-295 CNS)
> 42.5 µM: TGI (UACC-257 melanoma)

C[C@H](Nc1cc(Cl)nc2c1cnn2[C@@H]1O[C@H](COP(=O)(O)CP(=O)(O)O)[C@@H](O)[C@H]1O)c1ccccc1F
inactive: GI50 (NCI-H23 lung) 67.3 µM | GI50 (M14 melanoma) > 100000 nM | GI50 (KM12 colon) > 100 µM | GI50 (A498 renal) 62.1 µM | GI50 (UACC-257 melanoma) > 100000 nM | GI50 (IGROV1 ovarian) > 100000 nM | GI50 (PC-3 prostate) > 100 µM | GI50 (UO-31 renal) > 100000 nM | GI50 (CCRF-CEM leukemia) 42.4 µM | GI50 (DU-145 prostate) > 100000 nM | GI50 (MCF7 breast) > 100000 nM | GI50 (MDA-MB-468 breast) > 100000 nM | GI50 (K-562 leukemia) > 100000 nM | GI50 (SK-MEL-5 melanoma) > 100000 nM | GI50 (SK-OV-3 ovarian) 73.8 µM | GI50 (SW-620 colon) > 100000 nM | GI50 (HOP-62 NSCLC) > 100000 nM | GI50 (SNB-19 CNS) > 100000 nM | GI50 (HT29 colon) > 100000 nM | GI50 (HCC-2998 colon) 72.9 µM | GI50 (BT-549 breast) 50.6 µM | GI50 (NCI/ADR-RES ovarian) > 100000 nM | GI50 (OVCAR-8 ovarian) > 100000 nM | GI50 (HCT-116 colon) > 100000 nM | GI50 (SF-539 CNS) 49.9 µM | GI50 (U251 glioblastoma) > 100000 nM | GI50 (T-47D breast) 80.7 µM | GI50 (UACC-62 melanoma) > 100000 nM | GI50 (HOP-92 NSCLC) > 100 µM | GI50 (RXF 393 renal) 28.5 µM | GI50 (NCI-H522 lung) > 100000 nM | GI50 (SF-268 CNS) > 100000 nM | GI50 (NCI-H226 lung) 56.6 µM | GI50 (TK-10 renal) > 100 µM | GI50 (OVCAR-5 ovarian) > 100 µM | GI50 ([…]-0 renal) > 100000 nM | GI50 (NCI-H322M lung) > 100 µM | GI50 (HCT-15 colon) > 100000 nM | GI50 (A549 NSCLC) 80.5 µM | GI50 (NCI-H460 NSCLC) > 100000 nM | GI50 (OVCAR-3 ovarian) > 100 µM | GI50 (SF-295 CNS) > 100000 nM | GI50 (MDA-MB-231 breast) > 100 µM | GI50 (MALME-3M melanoma) > 100 µM | GI50 (SK-MEL-2 melanoma) 99.6 µM | GI50 (SN12C renal) 70.8 µM | GI50 (SK-MEL-28 melanoma) > 100000 nM | GI50 (MDA-MB-435 melanoma) > 100 µM | GI50 (COLO 205 colon) > 100000 nM | GI50 (LOX IMVI melanoma) > 100000 nM | GI50 (CAKI-1 renal) > 100000 nM | GI50 (ACHN renal) > 100000 nM | GI50 (HL-60(TB) leukemia) > 100000 nM | GI50 (OVCAR-4 ovarian) 50.6 µM | GI50 (RPMI-8226 leukemia) 8.19 µM | GI50 (MOLT-4 leukemia) 58.8 µM | GI50 (SR leukemia) 47.9 µM
40.9 µM: TGI (RPMI-8226 leukemia)
> 100 µM: TGI (KM12 colon) | TGI (A498 renal) | TGI (UACC-257 melanoma) | TGI (IGROV1 ovarian) | TGI (PC-3 prostate) | TGI (UO-31 renal) | TGI (DU-145 prostate) | TGI (MCF7 breast) | TGI (MDA-MB-468 breast) | TGI (K-562 leukemia) | TGI (SK-OV-3 ovarian) | TGI (SW-620 colon) | TGI (SNB-19 CNS) | TGI (HT29 colon) | TGI (HCC-2998 colon) | TGI (BT-549 breast) | TGI (NCI/ADR-RES ovarian) | TGI (OVCAR-8 ovarian) | TGI (HCT-116 colon) | TGI (SF-539 CNS) | TGI (U251 glioblastoma) | TGI (T-47D breast) | TGI (UACC-62 melanoma) | TGI (HOP-92 NSCLC) | TGI (RXF 393 renal) | TGI (NCI-H522 lung) | TGI (SF-268 CNS) | TGI (NCI-H226 lung) | TGI (TK-10 renal) | TGI (OVCAR-5 ovarian) | TGI (786-0 renal) | TGI (NCI-H322M lung) | TGI (HCT-15 colon) | TGI (A549 NSCLC) | TGI (OVCAR-3 ovarian) | TGI (SF-295 CNS) | TGI (MDA-MB-231 breast) | TGI (MALME-3M melanoma) | TGI (SK-MEL-2 melanoma) | TGI (SN12C renal) | TGI (SK-MEL-28 melanoma) | TGI (MDA-MB-435 melanoma) | TGI (LOX IMVI melanoma) | TGI (CAKI-1 renal) | TGI (OVCAR-4 ovarian) | TGI (MOLT-4 leukemia)
> 100000 nM: TGI (NCI-H23 lung) | TGI (M14 melanoma) | TGI (CCRF-CEM leukemia) | TGI (SK-MEL-5 melanoma) | TGI (HOP-62 NSCLC) | TGI (NCI-H460 NSCLC) | TGI (COLO 205 colon) | TGI (ACHN renal) | TGI (HL-60(TB) leukemia) | TGI (SR leukemia)
